# Data from patent publication US20080009546A1 (Chevron U.S.A. Inc., priority 2005, published 2008).
# Like-named read-outs stand apart in the source and are kept apart here.
# Columns and labels:
# NMDA receptor [1] = assay: [3H]MK-801 binding assay, NMDA receptors in guinea pig brain membranes
# Experimental: Hartley guinea pigs were sacrificed, and their brains were quickly removed and weighed. The brains then were homogenized in 50 mM Tris HCl buffer, pH 7.7, using a Polytron homogenizer. The homogenate was centrifuged at 40,000×g for 15 min, rehomogenized, and centrifuged again. The final pellet was resuspended in Tris-HCl, pH 7.7, at a final concentration of 6.67 mg original wet weight of tissue/ml. […] The samples were then filtered through glass fiber filters on a Tomtec cell harvester. The filters were washed 3 times with 3 ml of cold buffer. Filters were dried overnight and counted next day on a Wallac Betaplate Reader.
# The binding experiments were conducted as follows. […] For each compound, graphs were prepared containing individual competition curves obtained for that compound. IC50 values and Hill coefficients were calculated using the program Prism. Ki values were calculated using the Chang Prusoff transformation: Ki=IC50/(1+L/Kd)
# where L is radioligand concentration and Kd is the binding affinity of the radioligand, as determined previously by saturation analysis. […] In each experiment, one standard compound was simultaneously run on each 96 well plate.
# NMDA receptor [2] = assay: Whole-cell voltage-clamp recordings of NMDA evoked currents in hypocretin neurons (hypothalamic slices); assay type: cell-based, mouse
# [3] = system: primary neurons from rat cerebral cortex; assay: NMDA-induced LDH release assay in primary cortical neurons (neuroprotection); assay type: cell-based; set-up: Total LDH (Avg): unit not given here
# Outline: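 Fetal rat (E16–E18) cortical neurons on mouse astroglial feeder layers, fed growth medium/neurobasal+B27 (1:1), used after 11–14 days. Treatments given in Locke's buffer pH 7.4 for 15 min, then cells washed; 24 h later percent LDH released = 100×secreted/(total+secreted), tetrazolium readout.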
# C57/BL6 male mice = assay: Pentylenetetrazol (PTZ)-induced seizure/death model; assay type: in vivo, mouse; conditions: for # of deaths within 30 min: 6 mice; for # of deaths within 30 min / PTZ-induced death: PTZ 100 mg/kg; for PTZ-induced death: 30 min observation
# Experimental: Although the protection against death is the key endpoint, other effects of the compounds on PTZ-induced seizures were also assessed using multiple parameters. For the mice that did die within the 30 minute observation window, the time of death was also compared. […] The seizure occurrence rate, onset time and number of level 3 (L3) seizure (repetitive seizures but the animal can still stand) and level 4 (L4) seizure (repetitive seizures and the animal loses righting) are also analyzed. The MDT compound (30 mg/kg) treated groups show a certain degree of improvement compared to control. No data from MK801 or memantine were included because the seizures occurring under these treatments are totally different from the control or MDT injected groups due to side effects (“high jumping”).
# [4] = NMDA 300 uM + Memantine 50 uM, Plate #4, poly-lysine-coated rat neurons, GM/NB + B-27 fed, 24 hour incubation
# [5] = NMDA 300 uM + Memantine 50 uM, Plate #5, astrocyte-coated rat neurons, GM fed, 24 hour incubation
# [6] = NMDA 300 uM + Memantine 50 uM, astrocyte-coated rat neurons, GM/NB + B-27 fed, 24 hour incubation
# [7] = NMDA 500 μM + Memantine 10 μM, astrocyte-coated rat neurons, GM/NB + B-27 fed, 21 hour incubation
# [8] = NMDA 500 uM + Memantine 10 uM, poly-lysine-coated rat neurons, GM/NB + B-27 fed, 40 hour incubation
# [9] = NMDA 500 μM + Memantine 100 μM, astrocyte-coated rat neurons, GM/NB + B-27 fed, 21 hour incubation
# [10] = NMDA 500 uM + Memantine 100 uM, poly-lysine-coated rat neurons, GM/NB + B-27 fed, 40 hour incubation
smiles,measurement,setting,value
"CC12CC3CC(C)(C1)CC(N)(C3)C2 [memantine, 1-amino-3,5-dimethyladamantane, reference compound]",Ki,"NMDA receptor [1]; [3H]MK-801 (1 nM), guinea pig brain membrane preparation, read-out: Ki (binding affinity)",0.73 µM
same,Relative affinity,NMDA receptor [1]; compared to that of Memantine,1 ^
same,Ki,"NMDA receptor [1]; standard compounds at the NMDA site (Table 27), read-out: Ki",0.733 ± 0.13 µM
same,reversibility of inhibition of NMDA evoked currents upon washout,NMDA receptor [2],reversible
same,inhibition of the peak amplitude of NMDA evoked currents,NMDA receptor [2]; 10 µM,41.3±10%
same,inhibition of the peak amplitude of NMDA evoked currents,NMDA receptor [2]; 30 µM,52.7±7.4%
same,% (Control Wash = 100),[3]; [4],166%
same,Secreted LDH (Avg),[3]; [4],0.75
same,Secreted/(total + secreted) (Avg),[3]; [4],18.20
same,Total LDH (Avg),[3]; [4],3.36
same,% (Control Wash = 100),[3]; [5],106%
same,Secreted LDH (Avg),[3]; [5],0.20
same,Secreted/(total + secreted) (Avg),[3]; [5],6.20
same,Total LDH (Avg),[3]; [5],3.06
same,% (Control Wash = 100),[3]; [6],272%
same,Secreted LDH (Avg),[3]; [6],0.83
same,Secreted/(total + secreted) (Avg),[3]; [6],19.63
same,Total LDH (Avg),[3]; [6],3.41
same,% (Control Wash = 100),[3]; [7],129%
same,Secreted LDH (Avg),[3]; [7],0.47
same,Secreted/(total + secreted) (Avg),[3]; [7],10.73
same,Total LDH (Avg),[3]; [7],3.89
same,% (Control Wash = 100),[3]; [8],111%
same,Secreted LDH (Avg),[3]; [8],0.41
same,Secreted/(total + secreted) (Avg),[3]; [8],12.77
same,Total LDH (Avg),[3]; [8],2.80
same,% (Control Wash = 100),[3]; [9],114%
same,Secreted LDH (Avg),[3]; [9],0.42
same,Secreted/(total + secreted) (Avg),[3]; [9],9.47
same,Total LDH (Avg),[3]; [9],4.02
same,% (Control Wash = 100),[3]; [10],156%
same,Secreted LDH (Avg),[3]; [10],0.52
same,Secreted/(total + secreted) (Avg),[3]; [10],17.86
same,Total LDH (Avg),[3]; [10],2.39
same,Mortality rate,C57/BL6 male mice; 10 mg/kg i.p.,0.17
same,# of deaths within 30 min,C57/BL6 male mice; 10 mg/kg i.p.,1
same,Mortality rate,C57/BL6 male mice; 30 mg/kg i.p.,0
same,# of deaths within 30 min,C57/BL6 male mice; 30 mg/kg i.p.,0
same,PTZ-induced death,C57/BL6 male mice; 10 and 30 mg/kg i.p.,dose-dependent reduction in death
same,PTZ-induced death,C57/BL6 male mice; high dose 30 mg/kg i.p.,full protection
